Here are results for 51 compounds from patent US9724351B2, “Compounds for the treatment of paramoxyvirus viral infections” (priority 2012, dated 2017).

The structures appear in SMILES notation.

The test system of data set [1] is Respiratory Syncytial Virus (RSV) long strain (ATCC#VR-26). The data set can be described thus: RSV Antiviral Assay (CPE reduction assay). The format is cell-based. As to conditions: human respiratory syncytial virus, 120 h; HEp-2 cells infected with RSV long strain, 5 days, CCK-8 readout; bins (Table 2: less than 1 μM; Table 3: equal to or higher than 1 μM and less than 50 μM); read-out: 50% effective concentration (EC50). The method in brief:
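Cytopathic-effect protection measured after 5 days at 37 °C, 5% CO2 via CCK-8 dehydrogenase readout at 450 nm (630 nm reference), EC50 regressed from mean O.D. Host HEp-2 cells received RSV long strain at 100 TCID50/well; compound 9-point ⅓ series starting 100 μM or 1 μM, 1% DMSO, duplicate wells.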

Data set [2] is described as follows: Cytotoxicity Determination. The format is cell-based. As to conditions: human, HEp-2 cells, without addition of virus, CCK-8 readout, bins (Table 4: greater than 100 μM; Table 5: equal to or less than 100 μM and greater than 10 μM), read-out: 50% cytotoxicity concentration (CC50). The method in brief: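 CC50 was derived from CCK-8 optical density after a 3-4 h reagent incubation. Before that, cells without virus had been treated for 5 days at 37 °C, 5% CO2 with compound at seven ½-step final concentrations from 100 μM, in duplicate wells.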

As for `COc1ccc(C(=O)N2CCCC2C(=O)c2ccc(OC)c(-c3csc4c(F)cccc34)n2)cc1OC` (stereo not drawn) [Compound 1822], the EC50 in data set [1] was in the range of 1 to 50 µM. Further, in data set [2], the CC50 at 5 days was in the range of 10 to 100 µM.
The like results for `COCCc1ccc(C(=O)NCC(=O)c2ccc(OC)c(-c3ccc(F)c(Br)c3)n2)cc1OC` [Compound 1334] were, in that order, < 1 µM and 10 to 100 µM.
The like results for `COc1ccc(C(=O)NCC(=O)N/N=C/c2ccc3ccsc3c2)cc1OC` [Compound 496] were, in that order, 1 to 50 µM and 10 to 100 µM.
Turning to `COc1cc(C(=O)NCC(=O)c2ccc(OC)c(-c3ccc(Cl)c(Cl)c3)n2)ccc1OCCF` [Compound 2627], the EC50 in data set [1] is < 1 µM. Besides, the CC50 at 5 days in data set [2] is > 100 µM.
As to `COc1ccc(C(=O)NCC(=O)c2cc(Cl)cc(-c3csc4c(F)cccc34)n2)cc1OC` [Compound 2604], the EC50 in data set [1] is 1 to 50 µM. Also, in data set [2], the CC50 at 5 days is > 100 µM.
The like results for `CCN(CC)c1ccc(C(=O)NCC(=O)N/N=C(\C)c2csc3ccccc23)cc1` [Compound 469] were, in that order, 1 to 50 µM and 10 to 100 µM.
For `COc1ccc(C(=O)NCC(=O)N/N=C(\C)c2cc(C)sc2C)cc1OC` [Compound 438], in data set [1], the EC50 is 1 to 50 µM. The CC50 at 5 days in data set [2] is > 100 µM.
As to `CCN(CC)c1ccc(C(=O)NCC(=O)N/N=C(\C)c2csc3ccccc23)cc1OC` [Compound 500], the EC50 in data set [1] fell in the range of 1 to 50 µM. The CC50 at 5 days in data set [2] is > 100 µM.
The like results for `COc1cc(C(=O)NCC(=O)c2cccc(-c3csc4c(F)cccc34)n2)ccc1O` [Compound 1226] were, in that order, 1 to 50 µM and 10 to 100 µM.
The like results for `CNc1cc(C(=O)CNC(=O)c2ccc(OC)c(OC)c2)nc(-c2csc3c(F)cccc23)c1` [Compound 1220] were, in that order, < 1 µM and > 100 µM.
As for `CCOc1ccc(C(=O)NCC(=O)N/N=C(\C)c2csc3c(F)cccc23)cc1OC` [Compound 461], the EC50 in data set [1] was < 1 µM. In data set [2], the CC50 at 5 days lay in the range of 10 to 100 µM.
`COc1cc(C(=O)NCC(=O)c2cc(CO)cc(-c3csc4c(F)cccc34)n2)ccc1OCCO` [Compound 1255]: in data set [1], the EC50 was < 1 µM. In data set [2], the CC50 at 5 days is 10 to 100 µM.
As to `CC/C(=N\NC(=O)CNC(=O)c1ccc(OC)c(OC)c1)c1csc2ccccc12` [Compound 415], in data set [1], the EC50 is < 1 µM. The CC50 at 5 days in data set [2] lay in the range of 10 to 100 µM.
The like results for `COc1ccc(C(=O)NCC(=O)c2ccc(OC)c(-c3csc4c(F)cccc34)n2)cc1OC` [Compound 1336] were, in that order, < 1 µM and > 100 µM.
For `COc1ccc(C(=O)NCC(=O)c2ccc(OC)c(-c3cccc4c(F)cccc34)n2)cc1OC` [Compound 1522], in data set [1], the EC50 was 1 to 50 µM. In data set [2], the CC50 at 5 days was 10 to 100 µM.
On the same counts, the results for `COc1cc(C(=O)NCC(=O)c2ccc(OC)c(-c3csc4c(F)cccc34)n2)ccc1OCCF` [Compound 2625] are < 1 µM and > 100 µM.
The like results for `COc1cc(C(=O)NCC(=O)c2ccc(OC)c(-c3csc4c(F)cccc34)n2)ccc1OCCN` [Compound 1232] were, in that order, < 1 µM and 10 to 100 µM.
As for `COc1cc(C(=O)N[C@H](CCCCN)C(=O)c2ccc(OC)c(-c3csc4c(F)cccc34)n2)ccc1OCCO` [Compound 1836], the EC50 in data set [1] was 1 to 50 µM. Also, the CC50 at 5 days in data set [2] was in the range of 10 to 100 µM.
The like results for `COc1cc(-c2csc3c(F)cccc23)nc(C(=O)CNC(=O)c2ccc(OC)c(OC)c2)n1` [Compound 3401] were, in that order, 1 to 50 µM and > 100 µM.
The like results for `COC/C(=N\NC(=O)CNC(=O)c1ccc(OC)c(OC)c1)c1csc2ccccc12` [Compound 443] were, in that order, 1 to 50 µM and > 100 µM.
On the same counts, the results for `COc1cc(C(=O)NC(CCO)C(=O)c2ccc(OC)c(-c3ccc(F)c(Cl)c3)n2)ccc1OCCO` (stereo not drawn) [Compound 1837] are < 1 µM and 10 to 100 µM.
As for `CCN(C)c1ccc(C(=O)NCC(=O)N/N=C(\C)c2csc3ccccc23)cc1OC` [Compound 512], the EC50 in data set [1] fell in the range of 1 to 50 µM. Also, the CC50 at 5 days in data set [2] fell in the range of 10 to 100 µM.
Regarding `COc1cc(C(=O)NCC(=O)c2ccc(OC)c(-c3ccc(C)cc3)n2)ccc1OCCO` [Compound 1606], the EC50 in data set [1] is < 1 µM. The CC50 at 5 days in data set [2] is > 100 µM.
In the case of `COc1ccc(C(=O)NCC(=O)c2cccc(-n3cnc4c(F)cccc43)n2)cc1OC` [Compound 2600], the EC50 in data set [1] was in the range of 1 to 50 µM. In addition, the CC50 at 5 days in data set [2] is 10 to 100 µM.
As for `COc1ccc(C(=O)NCC(=O)N/N=C/c2cc3ccccc3o2)cc1OC` [Compound 409], in data set [1], the EC50 fell in the range of 1 to 50 µM. Moreover, in data set [2], the CC50 at 5 days was 10 to 100 µM.
For `COc1ccc(C(=O)NCC(=O)c2ccc(OC)c(-c3cccc4ncccc34)n2)cc1OC` [Compound 1519], in data set [1], the EC50 is 1 to 50 µM. In data set [2], the CC50 at 5 days was 10 to 100 µM.
As for `COc1ccc(C(=O)CNC(=O)c2ccncn2)nc1-c1ccc(F)c(Cl)c1` [Compound 4205], in data set [1], the EC50 lay in the range of 1 to 50 µM. The CC50 at 5 days in data set [2] is > 100 µM.
Consider `CCCC/C(=N/NC(=O)CNC(=O)c1ccc(OCCO)c(OC)c1)c1csc2c(F)cccc12` [Compound 602], for which the EC50 in data set [1] is < 1 µM. Also, in data set [2], the CC50 at 5 days is > 100 µM.
The like results for `CNc1ccc2scc(/C=N/NC(=O)CNC(=O)c3ccc(OC)c(OC)c3)c2c1` [Compound 400-18] were, in that order, 1 to 50 µM and > 100 µM.
The like results for `COc1cc(C(=O)NCC(=O)N(C)/N=C(\C)c2csc3c(F)cccc23)ccc1OCCO` [Compound 651] were, in that order, < 1 µM and > 100 µM.
On the same counts, the results for `CCCC/C(=N\NC(=O)CNC(=O)c1ccc(OCC)c(OC)c1)c1csc2c(F)cccc12` [Compound 462A] are < 1 µM and > 100 µM.
With `COc1ccc(C(=O)NCC(=O)N/N=C(\CF)c2csc3ccccc23)cc1OC` [Compound 444], the EC50 in data set [1] was 1 to 50 µM. Also, the CC50 at 5 days in data set [2] is > 100 µM.
Consider `COc1cc(C(=O)NCC(=O)c2ccc(OC)c(-c3ccc(F)c(Cl)c3)n2)ccc1OCC1CC1` [Compound 2638], for which the EC50 in data set [1] was < 1 µM. Besides, the CC50 at 5 days in data set [2] was 10 to 100 µM.
The like results for `COc1ccc(C(=O)NCC(=O)N/N=C2\CCOc3ccccc32)cc1OC` [Compound 452] were, in that order, 1 to 50 µM and > 100 µM.
In the case of `COc1ccc(C(=O)NCC(=O)N/N=C2\CCNc3ccccc32)cc1OC` [Compound 447], the EC50 in data set [1] was in the range of 1 to 50 µM. In data set [2], the CC50 at 5 days is > 100 µM.
For the compound `COc1ccc(C(=O)NCC(=O)c2cc(CC(C)C)cc(-c3csc4c(F)cccc34)n2)cc1OC` [Compound 1239], the EC50 in data set [1] was in the range of 1 to 50 µM. Moreover, in data set [2], the CC50 at 5 days is > 100 µM.
On the same counts, the results for `COc1cc(C(=O)NCC(=O)N/N=C(/CC2CCCCC2)c2csc3c(F)cccc23)ccc1OCCO` [Compound 606] are 1 to 50 µM and 10 to 100 µM.
The like results for `CCCC/C(=N\NC(=O)CNC(=O)c1ccc(OC(C)C)c(OC)c1)c1csc2ccccc12` [Compound 476] were, in that order, < 1 µM and > 100 µM.
On the same counts, the results for `COc1ccc(C(=O)NCC(=O)N/N=C(/c2csc3ccccc23)C2CC2)cc1OC` [Compound 426] are 1 to 50 µM and 10 to 100 µM.
In the case of `CCN1C/C(=N\NC(=O)CNC(=O)c2ccc(OC)c(OC)c2)c2c(sc3c(F)cccc23)C1` [Compound 400-23], the EC50 in data set [1] was < 1 µM. For the same compound, the CC50 at 5 days in data set [2] is > 100 µM.
The like results for `COCCOc1ccc(C(=O)NCC(=O)N/N=C(\CCOC)c2csc3c(F)cccc23)cc1OC` [Compound 513] were, in that order, < 1 µM and > 100 µM.
As to `COc1cc(C(=O)NCC(=O)c2ccc(OC)c(-c3ccc(F)c(C(F)F)c3)n2)ccc1OCCO` [Compound 1327], the EC50 in data set [1] is < 1 µM. The CC50 at 5 days in data set [2] is > 100 µM.
With `COc1cc(C(=O)NCC(=O)N/N=C(\C)c2csc3ccccc23)ccc1OCCO` [Compound 600], the EC50 in data set [1] is < 1 µM. The CC50 at 5 days in data set [2] was > 100 µM.
On the same counts, the results for `CCOc1ccc(C(=O)NCC(=O)N/N=C/c2csc3c(F)cccc23)cc1OC` [Compound 400-26] are < 1 µM and > 100 µM.
On to `COc1ccc(C(=O)NCC(=O)c2cc(N(C)C)cc(-c3csc4c(F)cccc34)n2)cc1OC` [Compound 1221], for which the EC50 in data set [1] was < 1 µM. Further, the CC50 at 5 days in data set [2] was > 100 µM.
The like results for `COc1ccc(C(=O)NCC(=O)N/N=C/c2c(C)[nH]c3ccccc23)cc1OC` [Compound 403] were, in that order, 1 to 50 µM and > 100 µM.
On to `COc1ccc(C(=O)NCC(=O)c2ccc(OC)c(-c3ccccc3C#N)n2)cc1OC` [Compound 1516], for which, in data set [1], the EC50 lay within 1 to 50 µM. For the same compound, the CC50 at 5 days in data set [2] lay within 10 to 100 µM.
Turning to `COCc1ccc(C(=O)NCC(=O)N/N=C(\C)c2csc3ccccc23)cc1OC` [Compound 400-6], the EC50 in data set [1] is 1 to 50 µM. In data set [2], the CC50 at 5 days was > 100 µM.
The like results for `CCOc1ccc(C(=O)NCC(=O)Nc2nc3cc(Cl)ccc3n2CCOC)cc1OC` [Compound 911] were, in that order, 1 to 50 µM and 10 to 100 µM.
For the compound `COc1cc(C(=O)NCC(=O)c2cc(C(C)(C)C)cc(-c3ccc(F)c(Cl)c3)n2)ccc1OCCO` [Compound 2115], the EC50 in data set [1] is < 1 µM. The CC50 at 5 days in data set [2] is 10 to 100 µM.
`COc1cc(C(=O)NCC(=O)c2ccc(OC)c(-c3ccc(F)c(Cl)c3)n2)ccc1OCCN(C)C` [Compound 1314]: the EC50 in data set [1] is 1 to 50 µM. Moreover, the CC50 at 5 days in data set [2] was 10 to 100 µM.
